Tests used:
[1] = system: KPC mouse model of pancreatic ductal adenocarcinoma (PDAC); experiment: KPC mouse model of pancreatic cancer, histological analysis of pancreata; format: in vivo; conditions: KPC mice treated from 5 to 11 weeks of age; Compound 2 in mixed chow; FIG. 1
Description: Control animals received normal drinking water and standard chow.

[2] = system: KPC/WCB3 cells orthotopically injected into the pancreas; experiment: KPC/WCB3 orthotopic mouse model of pancreatic cancer, histological analysis of pancreata; format: in vivo; conditions: orthotopic KPC/WCB3, C57BL/6J mice; treatment from day 7 for one month; FIG. 4
Description: This model is constituted by the implantation of KPC/WBC3 cells originating from a spontaneous developed donor tumour in KPC mice into the pancreas of male wildtype C57BL/6J recipient mice. The pathology and tumour microenvironment in this model closely resemble human pancreatic cancer.
Control animals received normal drinking water and standard chow. One month after initiation treatment was stopped and mice were euthanized. Pancreata were harvested and analysed by histological analysis for level of fibrosis, number of Tregs and number of proliferating CAFs.

pancreatic cancer = pancreatic cancer patients, standard treatment; cited from earlier work

SMILES | number of low-grade (PanIN-1 and PanIN-2) lesions [1] | tumour burden [1] | Tregs [2] | proliferating CAFs [2] | tumour fibrosis score [2] | average median overall survival (pancreatic cancer) [months] | response rate (pancreatic cancer)
C[C@H](NC(=O)CCc1nc2cccnc2n1Cc1ccc(OC(F)(F)F)cc1)c1ccc(Cl)cc1 [Compound 2, N-[(S)-1-(4-chloro-phenyl)-ethyl]-3-[3-(4-trifluoromethoxy-benzyl)-3H-imidazo[4,5-b]pyridin-2-yl]-propionamide] | reduces | without having significant effects | significantly reduces | significantly reduces | limited effect | – | –
Nc1ccn([C@@H]2O[C@H](CO)[C@@H](O)C2(F)F)c(=O)n1 [gemcitabine] | – | – | – | – | – | 6 | 5-10%
